Assay results published in patent publication US20050123613A1, “Activated carbon infusion solution, preparation method therefor and use thereof for the manufacture of drug for treating cancer” (priority 2003, published 2005).

Tests used:
[1] = Measured adsorption values of drugs on hydroxyl-amino carbon; type: physicochemical; settings: specific surface area 6800M^2/g
[2] = Measured adsorption values of drugs on activated carbon; type: physicochemical; settings: specific surface area 6800M^2/g
[3] = tested on: cancer patients; test: Experimental clinical cases, intravenous injection; type: in vivo, human; settings: Case 4, breast cancer with systematic metastasis, before activated carbon treatment

ClC(Cl)Cl [chloroform]
Adsorption value on hydroxyl-amino carbon [1]: 4 mg
Adsorption value on activated carbon [2]: 10 mg

Nc1ncnc2nc[nH]c12 [adenine]
Adsorption value on hydroxyl-amino carbon [1]: 260 mg
Adsorption value on activated carbon [2]: 213 mg

Nc1nc2nc[nH]c2c(=O)[nH]1 [guanine]
Adsorption value on hydroxyl-amino carbon [1]: 378 mg
Adsorption value on activated carbon [2]: 331 mg

thymopeptide
Adsorption value on hydroxyl-amino carbon [1]: 127 mg
Adsorption value on activated carbon [2]: 90 mg

O=c1cc[nH]c(=O)[nH]1 [uracil]
Adsorption value on hydroxyl-amino carbon [1]: 51 mg
Adsorption value on activated carbon [2]: 33 mg

O=c1[nH]cc(Cl)c(=O)[nH]1 [5-chlorouracil]
Adsorption value on hydroxyl-amino carbon [1]: 102 mg
Adsorption value on activated carbon [2]: 75 mg

S=c1nc[nH]c2nc[nH]c12 [Example 6-MP, 6-MP, reference compound]
Adsorption value on hydroxyl-amino carbon [1]: 304 mg
Adsorption value on activated carbon [2]: 220 mg

O=P1(N(CCCl)CCCl)NCCCO1 (stereo not drawn) [CTX, reference compound]
Adsorption value on hydroxyl-amino carbon [1]: 136 mg
Adsorption value on activated carbon [2]: 98 mg

ferroporphyrin
Adsorption value on hydroxyl-amino carbon [1]: 311 mg
Adsorption value on activated carbon [2]: 283 mg

N.N.[Cl][Pt][Cl] [cisplatin, reference compound]
Adsorption value on hydroxyl-amino carbon [1]: 1105 mg
Adsorption value on activated carbon [2]: 995 mg

O=c1[nH]cc(F)c(=O)[nH]1 [5-fluorouracil, reference compound]
Adsorption value on hydroxyl-amino carbon [1]: 49 mg

CN1CC[C@]23c4c5ccc(O)c4O[C@H]2[C@@H](O)C=C[C@H]3[C@H]1C5 [Morphine]
Analgesia [3]: of no effect

Cc1c[nH]c(=O)[nH]c1=O [thymine]
Adsorption value on hydroxyl-amino carbon [1]: 17 mg
Adsorption value on activated carbon [2]: 5 mg
